# Test results: patent US20260048022A1, “ENDOTHELIAL DAMAGE AND NANOPARTICLE TARGETING: COMPOSITIONS, PROCESSES, USES” (Nanoprobes, Inc., priority 2022, published 2026)
# Where two headings read alike, the source gives them in different places.
# Legend:
# [1] = system: advanced non-squamous non-small-cell lung cancer; conditions: Phase II, with carboplatin, paclitaxel, and bevacizumab; cited from earlier work
# [2] = Phase III trials; cited from earlier work
# tumors [3] = experiment: Tumor treatment, variation of fibrinogen, drug and VDA amounts; type: in vivo
# Procedure: One of the components, fibrinogen, was varied from 10 to 150 mg/kg.
# In a preferred embodiment, 60 mg PTX/kg and 350 mg fibrinogen/kg are formed into nanoparticles 110-180 nm or 110 to 350 nm in size. Another discovery process requiring extensive experimentation was to find the type of fibrinogen that worked well. […] Various forms and fractions were tested to find a preferable one for tumor targeting.
# tumors [4] = conditions: Pedley et al, 1996; cited from earlier work
# [5] = Payload retention / incorporation in protein nanoparticles; type: physicochemical; conditions: PBS washing
# Procedure: (§1) 0.2 mg of acridine yellow G or 0.2 mg of propidium iodide were dissolved in DMSO by heating twice at 80° C. for 2 min. 15 mg albumin was dissolved in 0.4 mL of PBS. While sonicating the albumin solution in an ice bath, the acridine or propidium solutions were slowly over about 10-20 sec injected at the sonicator tip. Sonication was continued for another minute. Clear colored solutions were obtained. Both were filtered through a 0.45 μm filter, all passing through. However, if albumin was not used, the solution containing acridine all was retained by the filter, whereas the propidium solution passed through. Both were purified with 50 kD Amicon centrifugal filters with PBS washing.
# 20 mg of albumin was dissolved in 0.4 mL water and mixed with 0.5 mg of Dox making a clear colored solution. Under sonication and in an ice-water bath, 80 ul of 0.1 M NaOH was slowly injected near the sonicator tip. Next, 10 ul of 8% glutaraldehyde (in water) was added with an additional 5 minutes of sonication producing a clear solution. After 30 min, 30 ul of a 3 M solution of ethanolamine hydrochloride was added. After 30 min, the construct was purified on a 50 kDa centrifugal filter. […] After resuspension of the retentate in PBS the size of the nanoparticles was measured to be 117 nm by dynamic light scattering. […]
# DNA = experiment: Nanoparticle targeting of DNA; type: binding; conditions: DNA binder incorporated into nanoparticles
# Procedure: as §1
# 20 mg of albumin was dissolved in 0.4 mL water and mixed with 0.5 mg of Dox making a clear colored solution. Under sonication and in an ice-water bath, 80 ul of 0.1 M NaOH was slowly injected near the sonicator tip. Next, 10 ul of 8% glutaraldehyde (in water) was added with an additional 5 minutes of sonication producing a clear solution. After 30 min, 30 ul of a 3 M solution of ethanolamine hydrochloride was added. After 30 min, the construct was purified on a 50 kDa centrifugal filter. […] After resuspension of the retentate in PBS the size of the nanoparticles was measured to be 117 nm by dynamic light scattering.
# [6] = free drug, literature, cited from earlier work
smiles,measurement,setting,value
"COc1ccc(/C=C\c2cc(OC)c(OC)c(OC)c2)cc1OP(=O)(O)O.NC(CO)(CO)CO [CA4P, fosbretabulin tromethamine]",patient benefit,[1],little patient benefit
Cc1ccc2c(=O)c3cccc(CC(=O)O)c3oc2c1C [DMXAA],patient survival,[2],lack of patient gain in survival
same,dose leading to excessive toxicity,"mouse, in vivo",> 20 mg/kg
same,dose close to optimal,tumors [3]; DMXAA as vascular disrupting agent with nanoparticles,~18 mg/kg
same,ineffective dose (current teaching),tumors [4],less than 20 mg/kg
same,useful dose (current teaching),tumors [4],27.5 mg/kg
Cc1cc2cc3cc(C)c(N)cc3nc2cc1N [acridine yellow G],retention with albumin on 50 kD Amicon centrifugal filters (stable complex),[5],remained in the retentate
same,targeting of necroses / free DNA when included in a nanoparticle,DNA,found to target the nanoparticles to free DNA
CC(=O)O[C@H]1C(=O)[C@@]2(C)[C@H]([C@H](OC(=O)c3ccccc3)[C@]3(O)C[C@H](OC(=O)[C@H](O)[C@@H](NC(=O)c4ccccc4)c4ccccc4)C(C)=C1C3(C)C)[C@]1(OC(C)=O)CO[C@@H]1C[C@@H]2O [paclitaxel],maximum tolerated dose (reported / published),[6],10 mg/kg
same,maximum tolerated dose (reported / published),[6]; listed as PTX,25 mg/kg
same,tolerability,"mouse, in vivo, 90 mg/kg",well-tolerated
same,multiple of the maximum tolerated dose that can be safely administered,using the disclosed method,~4 times
same,treatment result,tumors [3]; 60-90 mg PTX/kg in the nanoparticle,excellent results
"CC[N+](C)(CC)CCC[n+]1c(-c2ccccc2)c2cc(N)ccc2c2ccc(N)cc21 [propidium, propidium iodide]",retention with albumin on 50 kD Amicon centrifugal filters (stable complex),[5],came through in the filtrate
same,targeting of necroses / free DNA when included in a nanoparticle,DNA,failed
